# Measured values published in publication PMC6838110 (Nature Communications, 2019).
# Tests used:
# Type in all cases: in vivo, mice
# [1] = tested on: A549 xenografts; experiment: Pharmacodynamic biomarkers by immunohistochemistry after IR; conditions: single dose AZD7648 100 mg kg−1, 1 h before IR 6 Gy
# [2] = tested on: CTG-0149 H&N PDX; experiment: PDX efficacy study; conditions: AZD7648 single agent
# Procedure: (§1) Immunocompromised SCID (C.B-17/IcrHan®Hsd-Prkdc^scid) or Hsd:Athymic Nude-Foxn1^nu female mice (Envigo) were used for tumour implantation. […] When dosed twice daily, the time between the morning and evening doses was 8 h. Targeted irradiation of 2 Gy was delivered over 2 min daily over the first 5 days of treatment. Liposomal doxorubicin (Doxoves) was diluted in physiological saline and intravenously dosed at 2.5 or 5 mg kg^−1 once per week. Olaparib was formulated in 10% DMSO/30% Kleptose and orally dosed at 100 mg kg^−1 once daily. […] Statistical significance was evaluated using a one-tailed t-test. All in vivo studies complied with all relevant ethical regulations for animal testing and research, followed AstraZeneca’s global bioethics policy and received ethical approval from the AstraZeneca ethical committee. HBCx-17 PDX study was carried out at XenTech, France in accordance with French regulatory legislation concerning the protection of laboratory animals. CTG-703, CTG-0828 and CTG-0149 PDX studies were carried out at Champions Oncology, Inc., USA in accordance to the guidelines of the Institutional Animal Care and Use Committee (IACUC) of Champions Oncology and the USA regulatory legislation. CDX and OV2022 PDX studies were conducted in the UK in accordance with UK Home Office legislation, the Animal Scientific Procedures Act 1986 and the Home Office project licences 70/8839, 70/8894 and P0EC1FFDF. […]
# (§2) SCID mice were surgically implanted subcutaneously with tumour fragments from donor mice. Tumours were measured (length x width) by bilateral Vernier calliper measurements and tumour volume calculated using Mousetrap software. Mice were randomized into […]
# (§3) treatment groups when mean tumour volume reached ~0.2 cm 3. AZD7648 was formulated in 0.5% hydroxypropyl methylcellulose (HPMC)/0.1% Tween80 (HPMC/T) and orally dosed (4–100 mg/kg). When dosed twice daily (bid), the time between the morning and evening doses was 8 hours. Targeted irradiation of 2 Gy was delivered over 2 minutes daily over the first 5 days of treatment. Liposomal doxorubicin (Doxoves) was diluted in physiological saline and intravenously dosed at 2.5 or 5 mg/kg once per week. Olaparib was formulated in 10% DMSO/30% Kleptose and orally dosed at 100 mg/kg once daily.
# (§4) HPMC/T. Tumour growth inhibition from start of treatment was assessed by co mparison of the mean change in tumour volume for the control and treated groups, using the Mousetrap application and represented as tumour growth inhibition (TGI). Statistical significance was evaluated using a one-tailed t-test. HBCx-17 PDX study was carried out at XenTech, France in accordance with French regulatory legislation concerning the protection of laboratory animals. CTG-703, CTG-0828 and CTG-0149 PDX studies were carried out at Champions Oncology, Inc., USA in accordance to the guidelines of the Institutional Animal Care and Use Committee (IACUC) of Champions Oncology and the USA regulatory legislation. CDX and OV2022 PDX studies were conducted in the UK in accordance with UK Home Office legislation, the Animal Scientific Procedures Act 1986, and AstraZeneca’s global bioethics policy. Experimental details are outlined in Home […]
# (§5) Blood samples were taken via venipuncture of the tail vein. Whole blood was mixed 1: 5 with PBS and centrifuged at 1500g for 3 minutes at 4°C, and the plasma was extracted […]
# (§6) was prepared using an appropriate dilution factor and compared against an 11-point standard calibration curve (1–10,000 nM) prepared in DMSO and spiked into bl ank plasma. Acetonitrile (100 µL) was added with the internal standard, followed by centrifugation at 3000 rpm for 10 minutes. Supernatant (50 µL) was then diluted in 300 µL water and analysed with ultra-performance liquid chromatography–tandem mass […]
# (§7) Xenograft sample preparation
# (§8) Animals were euthanized and tumour samples snap frozen in liquid nitrogen or fixed in formalin and paraffin embedded for subsequent analysis. Tumour pieces were lysed in […]
# [3] = tested on: OV2022 ovarian PDX; experiment: PDX efficacy study; conditions: AZD7648 single agent
# Procedure: as §1, §2, §3, §4, §5, §6, §7, §8
# [4] = tested on: CTG-703 ovarian PDX; experiment: PDX efficacy study; conditions: AZD7648 single agent
# Procedure: as §1, §2, §3, §4, §5, §6, §7, §8
# [5] = tested on: CTG-0828 NSCLC PDX; experiment: PDX efficacy study; conditions: AZD7648 single agent
# Procedure: as §1, §2, §3, §4, §5, §6, §7, §8
# [6] = tested on: HBCx-17 TNBC PDX; experiment: PDX efficacy study
# Procedure: as §1, §2
# (§9) treatment groups when mean tumour volume reached ~0.2 cm 3.
# [7] = tested on: FaDu ATM KO xenograft model; experiment: Pharmacodynamic biomarkers by western blot; conditions: 30 min after 75 mg kg−1 dose of AZD7648
# Excerpt: (1 picture or pasted object on this page, not shown here)
# as §9
smiles,measurement,setting,value
Cc1cc2ncnn2cc1Nc1ncc2c(n1)n(C1CCOCC1)c(=O)n2C [AZD7648],IR-induced increases in pDNA-PKcs Ser2056 and γH2AX,[1],abolished
same,TGI,[2],60–80%
same,TGI,[3],60–80%
same,TGI,[4],60–80%
same,TGI,[5],too variable to assess the group effect
same,TGI,[6]; AZD7648 75 mg kg−1 bid single agent (olaparib study),65%
same,TGI,[6]; AZD7648 single agent (doxorubicin study),25%
same,"reduction of pDNA-PKcs Ser2056, γH2AX and pRPA32 Ser4/Ser8",[7],~ 80%
